Consider one compound from PMC9412861, “Understanding the pH Dependence of Supersaturation State—A Case Study of Telmisartan” (Pharmaceutics, 2022).

The nature of series [1]: XRD characterization of solid phase isolated from solubility suspension. It is filed as physicochemical. Conditions: solid phase from solubility measurement, Prisma HT buffer. The procedure:
X-ray powder diffraction (XRD) measurements were performed by X’pert Pro MPD X-ray diffractometer (PANalytical B.v., Armelo, The Netherlands).

Series [2] can be described thus: UV/pH titration in MeOH-water mixtures with Yasuda–Shedlovsky extrapolation. It is filed as physicochemical. Conditions: methanol-water mixtures, UV/pH titration in MeOH-water mixture, 25 °C, aqueous value by Yasuda–Shedlovsky extrapolation. The protocol: The cosolvent dissociation constants (psKa values) were determined in various MeOH-water mixtures between 8–34% (w/w) under the same experimental conditions as in aqueous medium. The aqueous pKa values were calculated from the measured psKa values in methanol-water solutions using the Yasuda–Shedlovsky extrapolation method. The Yasuda–Shedlovsky procedure is based on the linear relation between psKa and the dielectric constant (ε) of the cosolvent mixture:(1) psKa+log[H2O]=a/ε+b where ε is the dielectric constant, and log[H2O] is the molar water concentration of the given methanol-water mixture.

Read-outs that look alike come from different tables or passages of the source.

As for `CCCc1nc2c(C)cc(-c3nc4ccccc4n3C)cc2n1Cc1ccc(-c2ccccc2C(=O)O)cc1` [Telmisartan, telmisartan], the “XRD Characterization” value in series [1] (pH 1.60), in series [1] (pH 2.15), in series [1] (pH 2.50), in series [1] (pH 3.08), in series [1] (pH 3.82) and in series [1] (pH 6.50) was “Crystalline” in each case. The “XRD Characterization” value in series [1] (pH 7.88) was “Crystalline”; in series [1] (pH 9.40), “amorphous background”; in series [1] (pH 9.79), “amorphous background”; in series [1] (pH 11.74), “Amorphous”. Moreover, the pKa in series [2] (read-out: pKa1 ± SD (Carboxyl Group)) was 3.03 ± 0.06; in series [2] (read-out: pKa2 ± SD (Middle Benzimidazole Ring)), 4.19 ± 0.07; in series [2] (read-out: pKa3 ± SD (Terminal Benzimidazole Ring)), 6.14 ± 0.1.
